For this test, the target named is aryl hydrocarbon receptor (AhR) (Mus musculus (Mouse), UniProt P30561). The test is described as follows: AhR ligand screening: AhRE-luciferase reporter in transfected Hepa1 cells. As to conditions: for Fold @ 1 nM: fold change of luciferase expression at 1 nM test compound relative to vehicle (0.1% DMSO); for Fold @ 100 nM: fold change of luciferase expression at 100 nM test compound relative to vehicle (0.1% DMSO); for Fold @ 10 uM: fold change of luciferase expression at 10 uM test compound relative to vehicle (0.1% DMSO); for Fold relative to benchmark @ 100 nM: luciferase expression at 100 nM test compound relative to 100 nM benchmark compound 11-cl-BBQ. Format: cell-based. Put shortly: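 Mouse Hepa1 cells transfected with an AhRE-luciferase reporter were plated at 1×10^4 cells/well, grown overnight, then exposed to compounds. Cell lysates were assayed for luciferase by luminometry, with results given as fold induction over 0.1% DMSO vehicle.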
In general terms: Reporter assays use an easily measured gene product as a stand-in for the process of interest.

Sequence of aryl hydrocarbon receptor (AhR) (P30561 10-805): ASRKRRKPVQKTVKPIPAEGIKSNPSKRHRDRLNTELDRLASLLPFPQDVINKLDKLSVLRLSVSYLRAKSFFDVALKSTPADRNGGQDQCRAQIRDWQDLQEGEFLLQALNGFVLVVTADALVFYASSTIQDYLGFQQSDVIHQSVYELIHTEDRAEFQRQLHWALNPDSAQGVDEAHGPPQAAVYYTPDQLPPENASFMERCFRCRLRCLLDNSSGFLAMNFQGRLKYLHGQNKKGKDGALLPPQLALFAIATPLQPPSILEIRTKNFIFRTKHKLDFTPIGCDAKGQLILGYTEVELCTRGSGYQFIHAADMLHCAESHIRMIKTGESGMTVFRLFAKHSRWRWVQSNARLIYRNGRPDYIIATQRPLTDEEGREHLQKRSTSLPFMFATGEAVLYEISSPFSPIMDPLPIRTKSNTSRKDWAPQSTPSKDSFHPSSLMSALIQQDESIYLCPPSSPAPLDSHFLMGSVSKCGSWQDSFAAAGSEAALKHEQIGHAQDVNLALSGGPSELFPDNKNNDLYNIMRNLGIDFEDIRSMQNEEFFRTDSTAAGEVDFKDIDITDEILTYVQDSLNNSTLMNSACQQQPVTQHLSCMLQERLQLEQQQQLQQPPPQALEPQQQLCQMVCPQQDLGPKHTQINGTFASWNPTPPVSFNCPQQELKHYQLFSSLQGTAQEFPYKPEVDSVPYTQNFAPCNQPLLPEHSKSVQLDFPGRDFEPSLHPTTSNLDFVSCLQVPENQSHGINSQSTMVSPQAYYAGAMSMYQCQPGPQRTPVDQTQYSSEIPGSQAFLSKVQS
Sequence of aryl hydrocarbon receptor (AhR) (P53762 whole entry partner): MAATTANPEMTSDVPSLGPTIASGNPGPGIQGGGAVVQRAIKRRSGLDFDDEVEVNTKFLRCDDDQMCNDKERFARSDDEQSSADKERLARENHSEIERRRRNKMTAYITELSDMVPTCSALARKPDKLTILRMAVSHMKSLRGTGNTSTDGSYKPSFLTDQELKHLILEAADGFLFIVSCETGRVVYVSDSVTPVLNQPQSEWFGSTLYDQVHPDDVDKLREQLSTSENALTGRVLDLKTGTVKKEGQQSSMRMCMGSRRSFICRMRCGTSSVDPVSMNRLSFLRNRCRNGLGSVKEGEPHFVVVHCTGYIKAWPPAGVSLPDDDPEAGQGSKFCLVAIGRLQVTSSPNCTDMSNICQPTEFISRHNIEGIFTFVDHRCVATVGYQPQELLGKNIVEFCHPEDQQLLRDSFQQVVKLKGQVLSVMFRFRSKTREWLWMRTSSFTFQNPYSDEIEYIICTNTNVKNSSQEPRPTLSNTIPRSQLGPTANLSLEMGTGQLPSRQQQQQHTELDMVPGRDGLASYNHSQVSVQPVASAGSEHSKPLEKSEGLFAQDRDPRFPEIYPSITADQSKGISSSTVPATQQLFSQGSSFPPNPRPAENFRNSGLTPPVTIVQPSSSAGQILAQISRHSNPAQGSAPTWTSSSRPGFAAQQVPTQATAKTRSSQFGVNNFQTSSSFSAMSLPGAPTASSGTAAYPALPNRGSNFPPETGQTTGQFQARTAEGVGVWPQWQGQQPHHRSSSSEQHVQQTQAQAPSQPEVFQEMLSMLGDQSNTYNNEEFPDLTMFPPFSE

As for `O=C(c1ccncc1)n1c(-c2ccccc2)nc2ccc(Cl)cc21` [Compound 431], the “Fold @ 1 nM” value amounted to 1 fold, the “Fold @ 100 nM” value is 1 fold, the “Fold @ 10 uM” value is 8 fold and the “Fold relative to benchmark @ 100 nM” value is 0.03 fold.
Consider `N#Cc1ccc(S(=O)(=O)n2c(-c3cccc4ccccc34)nc3ccc(C(=O)N4CCCCC4)cc32)cc1` [Compound 1337], for which the “Fold @ 1 nM” value was 1 fold, the “Fold @ 100 nM” value is reported as 1 fold, the “Fold @ 10 uM” value is given as 8 fold and the “Fold relative to benchmark @ 100 nM” value is reported as 0.03 fold.
`Fc1ccc(-n2c(-c3cccc4ccccc34)nc3cc(Cl)ccc32)nc1` [Compound 854, 5-chloro-1-(5-fluoropyridin-2-yl)-2-(naphthalen-1-yl)-1H-benzo[d]imidazole]: the “Fold @ 1 nM” value was found to be 1 fold, the “Fold @ 100 nM” value is on record as 1 fold, the “Fold @ 10 uM” value is given as 4 fold and the “Fold relative to benchmark @ 100 nM” value stood at 0.03 fold.
Turning to `O=C(c1ccc(F)c(F)c1)n1c(-c2cccc(C(F)(F)F)c2)nc2cc(Cl)ccc21` [Compound 788], the “Fold @ 1 nM” value amounted to 1 fold, the “Fold @ 100 nM” value is 2 fold, the “Fold @ 10 uM” value was determined as 19 fold and the “Fold relative to benchmark @ 100 nM” value is 0.08 fold.
In the same order, the values of `O=S(=O)(C1CC1)n1c(-c2cccc3ccccc23)nc2cc(Cl)ccc21` [Compound 783] are 1 fold, 1 fold, 24 fold and 0.03 fold.
In the same order, the values of `O=C(c1cnc2ccccc2c1)n1c(-c2cccc3ccccc23)nc2cc(Cl)ccc21` [Compound 855] are 1 fold, 33 fold, 44 fold and 1.14 fold.
On to `N#Cc1ccc(S(=O)(=O)n2c(-c3cccc4ccccc34)nc3cc(C(=O)N4CCCCC4)ccc32)cc1` [Compound 1336], for which the “Fold @ 1 nM” value was found to be 1 fold, the “Fold @ 100 nM” value is recorded as 1 fold, the “Fold @ 10 uM” value was 6 fold and the “Fold relative to benchmark @ 100 nM” value is 0.03 fold.
Take `O=C(c1ccc(F)c(F)c1)n1c(-c2cccc3c2CCCC3)nc2cc(Cl)ccc21` [Compound 779]: the “Fold @ 1 nM” value is 1 fold, the “Fold @ 100 nM” value worked out at 1 fold, the “Fold @ 10 uM” value stood at 5 fold and the “Fold relative to benchmark @ 100 nM” value is 0.04 fold.
Turning to `O=C(c1ccccc1)n1c(-c2ccc(F)c3ccccc23)nc2cc(Cl)ccc21` [Compound 863], the “Fold @ 1 nM” value worked out at 1 fold, the “Fold @ 100 nM” value stood at 2 fold, the “Fold @ 10 uM” value stood at 34 fold and the “Fold relative to benchmark @ 100 nM” value is given as 0.07 fold.
In the case of `O=C(c1ccc2c(c1)nc(-c1cccc3ccccc13)n2Cc1cccc2ccccc12)N1CCOCC1` [Compound 1408], the “Fold @ 1 nM” value worked out at 1 fold, the “Fold @ 100 nM” value was found to be 1 fold, the “Fold @ 10 uM” value amounted to 4 fold and the “Fold relative to benchmark @ 100 nM” value was determined as 0.03 fold.
For `O=C(c1ccc(F)cc1F)n1c(-c2cccc3ccccc23)nc2cc(Cl)ccc21` [Compound 695], the “Fold @ 1 nM” value is 1 fold, the “Fold @ 100 nM” value was 23 fold, the “Fold @ 10 uM” value worked out at 30 fold and the “Fold relative to benchmark @ 100 nM” value is recorded as 0.88 fold.
Turning to `O=C(c1ccc(F)c(F)c1)n1c(-c2cccc(-c3ccccc3)c2)nc2ccc(Cl)cc21` [Compound 772], the “Fold @ 1 nM” value was determined as 1 fold, the “Fold @ 100 nM” value was found to be 1 fold, the “Fold @ 10 uM” value came to 1 fold and the “Fold relative to benchmark @ 100 nM” value is given as 0.04 fold.
With `O=C(c1ccc(F)c(F)c1)n1c(-c2cccc3ccccc23)nc2cc(OC(F)(F)F)ccc21` [Compound 699], the “Fold @ 1 nM” value is 1 fold, the “Fold @ 100 nM” value turned out to be 22 fold, the “Fold @ 10 uM” value is reported as 24 fold and the “Fold relative to benchmark @ 100 nM” value turned out to be 0.85 fold.
As for `COc1ccc(-c2nc3cc(Cl)ccc3n2C(=O)c2ccccc2)cc1` [Compound 496], the “Fold @ 1 nM” value is recorded as 1 fold, the “Fold @ 100 nM” value was 1 fold, the “Fold @ 10 uM” value amounted to 3.5 fold and the “Fold relative to benchmark @ 100 nM” value was determined as 0.03 fold.
As to `COC(=O)c1ccc2nc(-c3cccc4ccccc34)n(Cc3ccc(F)c(F)c3)c2c1` [Compound 1339], the “Fold @ 1 nM” value is 1 fold, the “Fold @ 100 nM” value was determined as 1 fold, the “Fold @ 10 uM” value came out at 4 fold and the “Fold relative to benchmark @ 100 nM” value came out at 0.03 fold.
Consider `COc1ccc(-c2nc3cc(Cl)ccc3n2C(=O)c2ccc(F)c(F)c2)c2ccccc12` [Compound 645], for which the “Fold @ 1 nM” value is given as 1 fold, the “Fold @ 100 nM” value was 1 fold, the “Fold @ 10 uM” value came out at 15 fold and the “Fold relative to benchmark @ 100 nM” value turned out to be 0.11 fold.
On to `O=C(c1ccc(F)c(F)c1)n1c(-c2cccc3c2CCCC3)nc2ccc(Cl)cc21` [Compound 780], for which the “Fold @ 1 nM” value is reported as 1 fold, the “Fold @ 100 nM” value turned out to be 1 fold, the “Fold @ 10 uM” value is 7 fold and the “Fold relative to benchmark @ 100 nM” value is reported as 0.04 fold.
As to `Clc1ccc2c(c1)nc1n2Cc2ccccc2-1` [Compound 522, 7-chloro-11H-benzo[4,5]imidazo[2,1-a]isoindole], the “Fold @ 1 nM” value turned out to be 1 fold, the “Fold @ 100 nM” value turned out to be 1 fold, the “Fold @ 10 uM” value amounted to 18 fold and the “Fold relative to benchmark @ 100 nM” value is on record as 0.07 fold.
`Fc1ccc(Cn2c(-c3cccc4ccccc34)nc3cc(Cl)ccc32)cc1F` [Compound 887]: the “Fold @ 1 nM” value was 1 fold, the “Fold @ 100 nM” value was determined as 1 fold, the “Fold @ 10 uM” value amounted to 14 fold and the “Fold relative to benchmark @ 100 nM” value is reported as 0.02 fold.
With `Fc1cccc(F)c1Cn1c(-c2cccc3ccccc23)nc2cc(Cl)ccc21` [Compound 871], the “Fold @ 1 nM” value is recorded as 1 fold, the “Fold @ 100 nM” value was 1 fold, the “Fold @ 10 uM” value came out at 12 fold and the “Fold relative to benchmark @ 100 nM” value is reported as 0.02 fold.
As to `O=C(c1c[nH]c2ccc(Cl)cc12)C1CCCCC1` [Compound 895], the “Fold @ 1 nM” value was determined as 1 fold, the “Fold @ 100 nM” value was found to be 1 fold, the “Fold @ 10 uM” value is listed as 10 fold and the “Fold relative to benchmark @ 100 nM” value stood at 0.02 fold.
For `O=C(c1ccccc1)n1c(-c2ccc(F)c(Cl)c2)nc2cc(Cl)ccc21` [Compound 582], the “Fold @ 1 nM” value was found to be 1 fold, the “Fold @ 100 nM” value is given as 1 fold, the “Fold @ 10 uM” value came to 14 fold and the “Fold relative to benchmark @ 100 nM” value is listed as 0.07 fold.
On to `O=C(c1ccc(F)c(F)c1)n1c(-c2ccc(F)c3ccccc23)nc2cc(Cl)ccc21` [Compound 792], for which the “Fold @ 1 nM” value was 1 fold, the “Fold @ 100 nM” value stood at 2 fold, the “Fold @ 10 uM” value was found to be 19 fold and the “Fold relative to benchmark @ 100 nM” value stood at 0.08 fold.
In the same order, the values of `Cc1ccc(S(=O)(=O)n2c(-c3cccc4ccccc34)nc3cc(Cl)ccc32)cc1` [Compound 527, 5-chloro-2-(naphthalen-1-yl)-1-tosyl-1H-benzo[d]imidazole] are 1 fold, 15 fold, 36 fold and 0.38 fold.

(Values after patent US12473262B2, “Aryl hydrocarbon receptor activators” (Oregon State University, priority 2019, dated 2025).)
